Measured values published in patent publication US20240423206A1, “HERBICIDE TRANSPORT SYSTEM” (priority 2021, published 2024).

Columns and labels:
[1] = powdered form, repeated inhalation of dust; cited from earlier work
[2] = Method: Pinoxaden (25 g) was added to the respective solvent (75 g) as set out in Table 1 and stirred at 50° C. for 1 hour. After cooling to room temperature (RT) the sample was visually checked for solid residues.
Where there were no residues and the resulting solution was a clear liquid the sample was considered as a “pass”.

## CCc1cc(C)cc(CC)c1-c1c(OC(=O)C(C)(C)C)n2n(c1=O)CCOCC2 [pinoxaden]
[1]
  respiratory sensitisation: respiratory sensitizer

## cyclohexanedicarboxylic acid, dinonyl ester
[2]
  Solubility: Fail

## rapeseed oil
[2]
  Solubility: Fail
